The results in this text go back to patent publication US8338450B2, “Compounds as dipeptidyl peptidase IV (DPP IV) inhibitors” (Lupin Limited, priority 2007, dated 2012).

The structures appear in SMILES notation. Counter-ions that a name gives are not always drawn.

T1 sequence (P27487 whole entry): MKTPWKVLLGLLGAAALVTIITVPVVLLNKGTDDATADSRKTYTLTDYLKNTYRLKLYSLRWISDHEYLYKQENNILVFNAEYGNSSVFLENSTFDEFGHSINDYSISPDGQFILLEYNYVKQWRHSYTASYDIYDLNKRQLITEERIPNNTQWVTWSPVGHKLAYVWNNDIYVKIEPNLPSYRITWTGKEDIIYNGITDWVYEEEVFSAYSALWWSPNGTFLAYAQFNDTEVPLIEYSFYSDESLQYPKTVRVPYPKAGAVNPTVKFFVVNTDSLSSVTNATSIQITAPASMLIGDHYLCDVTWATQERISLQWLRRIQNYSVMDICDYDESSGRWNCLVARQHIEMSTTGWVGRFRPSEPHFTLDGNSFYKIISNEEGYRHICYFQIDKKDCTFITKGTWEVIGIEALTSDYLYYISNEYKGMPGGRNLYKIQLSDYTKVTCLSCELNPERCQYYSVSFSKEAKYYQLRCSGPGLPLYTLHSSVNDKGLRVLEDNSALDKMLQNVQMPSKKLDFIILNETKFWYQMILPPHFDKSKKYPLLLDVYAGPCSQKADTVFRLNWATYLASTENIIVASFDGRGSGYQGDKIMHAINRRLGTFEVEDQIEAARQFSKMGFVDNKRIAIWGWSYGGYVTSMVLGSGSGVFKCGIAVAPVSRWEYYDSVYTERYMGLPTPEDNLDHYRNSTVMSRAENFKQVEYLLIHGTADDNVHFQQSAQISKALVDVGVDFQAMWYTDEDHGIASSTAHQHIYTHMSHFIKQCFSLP

The first test has as its target T1, human recombinant DPP-IV (Homo sapiens, UniProt P27487).
T1 construct: purchased R&D Systems, USA (or produced in-house)
Put plainly: Inhibition of human recombinant DPP-IV (Gly-Pro-AMC hydrolysis, fluorometric). It is filed as biochemical. The conditions noted are these: compound 10 nM; relative to vehicle controls. The protocol: Inhibition of Human Recombinant DPP-IV
The proteolytic activity of human recombinant DPP-IV was determined by following the hydrolysis of Gly-Pro-7-amino-4-methylcoumarin (Gly-Pro-AMC) and the fluorometric quantitation of the liberated AMC. Assays were routinely carried out in 96-well flat-bottom black microwell plates. The reaction mixture (100 μl) contained 10 ng of human recombinant DPP-IV enzyme (produced in-house or procured from R&D Systems, USA) in the assay buffer (25 mM Tris-HCl, pH 7.4, 140 mM NaCl, 10 mM KCl and 0.1 mg/ml BSA) and 50 μM Gly-Pro-AMC. After incubation of assay plates at 30° C. for 30 min, the hydrolysis of Gly-Pro-AMC was monitored in a fluorescence microplate reader (Molecular Devices SpectraMax M5), with excitation and emission wavelengths set at 360 nm and 460 nm, respectively.
The inhibition of DPP-IV activity by test compounds was routinely performed by preincubating the enzyme with test compound (10 and 100 nM for primary screening and 8 concentrations from 0.1 to 1000 nM for the dose-response study) or vehicle (0.01% DMSO) for 15 min at 30° C., in a total volume of 90 μl. Test compounds were dissolved in DMSO at a concentration of 10 mM and serially diluted further in assay buffer. The enzyme reaction was initiated by the addition of Gly-Pro-AMC, followed by incubation of assay plates for 30 min at 30° C. and the liberated AMC was measured as described above. A known inhibitor of DPP-IV (positive control) was always included in the assay. Test compounds at various concentrations were always evaluated in duplicate, along with substrate blanks, vehicle controls and positive controls.
The results are expressed as percent inhibition of the enzyme activity relative to vehicle controls. Dose-response studies were conducted for those compounds exerting ≧50% inhibition of activity at 10 nM in primary screening. IC50, defined as the inhibitor concentration which caused a 50% decrease of the activity under assay conditions, was computed using GraphPad Prism software, version 5.0.
The DPP-IV inhibition data (expressed either as IC50 in nanomolar or percent inhibition at a particular compound concentration) is presented in Table 1.
In the case of `N#C[C@H]1C[C@H]2C[C@H]2N1C(=O)[C@@H](N)C1CC2CCC(C1)N2C(=O)c1ccnc(F)c1.O=C(O)C(F)(F)F` (stereo partly drawn) [Compound 29, (1R,3R,5R)-2-{(2S)-2-Amino-2-[8-(2-fluoropyridine-4-carbonyl)-8-aza-bicyclo[3.2.1]oct-3-yl]-exo-ethanoyl}-2-azabicyclo[3.1.0]hexane-3-carbonitrile trifluoroacetic acid salt], the “% inhibition at 10 nM” value was determined as 0% inhibition at 10 nM.

For the compound `N#C[C@H]1C[C@H]2C[C@H]2N1C(=O)[C@H](N)C1CC2CCC(C1)N2C(=O)c1ccnc(F)c1.O=C(O)C(F)(F)F` (stereo partly drawn) [Compound 30, (1R,3R,5R)-2-{(2R)-2-Amino-2-[8-(2-fluoropyridine-4-carbonyl)-8-aza-bicyclo[3.2.1]oct-3-yl]-exo-ethanoyl}-2-azabicyclo[3.1.0]hexane-3-carbonitrile trifluoroacetic acid salt], the “% inhibition at 10 nM” value is given as 0% inhibition at 10 nM.

Regarding `N#C[C@@H]1C[C@@H]2C[C@@H]2N1C(=O)[C@H](N)C1CC2CCC(C1)N2C(=O)c1ccnc(F)c1.O=C(O)C(F)(F)F` (stereo partly drawn) [Compound 31, (1S,3S,5S)-2-{(2R)-2-Amino-2-[8-(2-fluoropyridine-4-carbonyl)-8-aza-bicyclo[3.2.1]oct-3-yl]-exo-ethanoyl}-2-azabicyclo[3.1.0]hexane-3-carbonitrile trifluoroacetic acid salt], the “% inhibition at 10 nM” value is 6% inhibition at 10 nM.

With `N#C[C@@H]1C[C@@H]2C[C@@H]2N1C(=O)[C@H](N)C1CC2CCC(C1)N2C(=O)c1cnccn1.O=C(O)C(F)(F)F` (stereo partly drawn) [Compound 36, (1S,3S,5S)-2-{(2R)-2-Amino-2-[8-(pyrazine-2-carbonyl)-8-aza-bicyclo[3.2.1]oct-3-yl]-exo-ethanoyl}-2-azabicyclo[3.1.0]hexane-3-carbonitrile trifluoroacetic acid salt], the “% inhibition at 10 nM” value is 17% inhibition at 10 nM.

As to `N#C[C@H]1C[C@H]2C[C@H]2N1C(=O)[C@@H](N)C1CC2CCC(C1)N2C(=O)c1cnccn1.O=C(O)C(F)(F)F` (stereo partly drawn) [Compound 37, (1R,3R,5R)-2-{(2S)-2-Amino-2-[8-(pyrazine-2-carbonyl)-8-aza-bicyclo[3.2.1]oct-3-yl]-exo-ethanoyl}-2-azabicyclo[3.1.0]hexane-3-carbonitrile trifluoroacetic acid salt], the “% inhibition at 10 nM” value is 7% inhibition at 10 nM.

Staying with this test, now noted: compound 100 nM; relative to vehicle controls.
For the compound `N#C[C@H]1C[C@H]2C[C@H]2N1C(=O)[C@H](N)C1CC2CCC(C1)N2C(=O)c1cnccn1.O=C(O)C(F)(F)F` (stereo partly drawn) [Compound 38, (1R,3R,5R)-2-{(2R)-2-Amino-2-[8-(pyrazin-2-carbonyl)-8-aza-bicyclo[3.2.1]oct-3-yl]-exo-ethanoyl}-2-azabicyclo[3.1.0]hexane-3-carbonitrile trifluoroacetic acid salt], the “% inhibition at 100 nM” value was determined as 16% inhibition at 100 nM.

The same test, now with this note: human recombinant DPP-IV, 50 μM Gly-Pro-AMC, 30 min at 30° C.
On to `N#C[C@@H]1C[C@@H]2C[C@@H]2N1C(=O)[C@@H](N)C1CC2CCC(C1)N2C(=O)c1cccnc1F` (stereo partly drawn) [Compound 32, (1S,3S,5S)-2-{(2S)-2-Amino-2-[8-(2-fluoropyridine-3-carbonyl)-8-aza-bicyclo[3.2.1]oct-3-yl]-exo-ethanoyl}-2-azabicyclo[3.1.0]hexane-3-carbonitrile trifluoroacetic acid salt], for which the IC50 (usually the midpoint of a concentration-inhibition curve) turned out to be 6.84 nM.

As for `N#C[C@@H]1C[C@@H]2C[C@@H]2N1C(=O)[C@@H](N)C1CC2CCC(C1)N2C(=O)c1cccnc1` (stereo partly drawn) [Compound 33, (1S,3S,5S)-2-{(2S)-2-Amino-2-[8-(pyridine-3-carbonyl)-8-aza-bicyclo[3.2.1]oct-3-yl]-exo-ethanoyl}-2-azabicyclo[3.1.0]hexane-3-carbonitrile di trifluoroacetic acid salt], the IC50 was 9.43 nM.

Take `N#C[C@@H]1C[C@@H]2C[C@@H]2N1C(=O)[C@@H](N)C1CC2CCC(C1)N2C(=O)c1cccs1` (stereo partly drawn) [Compound 34, (1S,3S,5S)-2-{(2S)-2-Amino-2-[8-(thiophene-2-carbonyl)-8-aza-bicyclo[3.2.1]oct-3-yl]-exo-ethanoyl}-2-azabicyclo[3.1.0]hexane-3-carbonitrile trifluoroacetic acid salt]: the concentration for half-maximal inhibition (IC50) came to 12.9 nM.
